{"source": "patent US20150057325A1", "about": "“COMPOUNDS CAPABLE OF MODULATING/PRESERVING ENDOTHELIAL INTEGRITY FOR USE IN PREVENTION OR TREATMENT OF ACUTE TRAUMATIC COAGULOPATHY AND RESUSCITATED CARDIAC ARREST” (priority 2012, published 2015)", "key": {"[1]": {"conditions": "in vivo; cited from earlier work"}, "[2]": {"tested_on": "whole blood platelet aggregation", "assay": "Whole blood impedance aggregometry (Multiplate) in healthy volunteers infused with flolan", "format": "in vivo, human", "conditions": "6 healthy volunteers, 4 ng/kg/min i.v., after 60 and 120 min infusion", "experimental": "(§1) Six healthy volunteers were administered flolan (Prostacycline) intravenously at a dose of 4 ng/kg/min for 2 h. Blood samples for whole blood viscoelastical assay (Thrombelastography [TEG]) and whole blood platelet aggregation (Multiplate) were obtained before infusion of Flolan, after 60 min infusion of Flolan and after 120 min infusion of Flolan.\nWhole blood impedance aggregometry was analyzed by the Multiple Platelet function Analyzer (MultiPlate® analyzer). Analysis employing various platelet agonists: ASPItest (activation by arachidonic acid), COLtest (activation by collagen through the collagen receptor), TRAPtest (activation by TRAP-6 stimulates the thrombin receptor on the platelet surface and ADPtest (activation by ADP stimulates platelet activation by the ADP receptors).\nMultiPlate continuously records platelet aggregation. The increase of impedance by the attachment of platelets onto the Multiplate sensors is transformed to arbitrary aggregation units (AU) and plotted against time as depicted in FIG. 2."}, "whole blood": {"tested_on": "whole blood", "assay": "Whole blood viscoelastical assay (Thrombelastography, TEG) in healthy volunteers infused with flolan", "format": "in vivo, human", "conditions": "6 healthy volunteers, 4 ng/kg/min i.v., after 60 and 120 min infusion; kaolin", "experimental": "Six healthy volunteers were administered flolan (Prostacycline) intravenously at a dose of 4 ng/kg/min for 2 h. Blood samples for whole blood viscoelastical assay (Thrombelastography [TEG]) and whole blood platelet aggregation (Multiplate) were obtained before infusion of Flolan, after 60 min infusion of Flolan and after 120 min infusion of Flolan. With regard to the TEG assay this was performed as recommended by the manufacturer and 340 μl are mixed with 20 μl CaCl 0.2 M (final concentration 11.1 mM in the cup) and kaolin at 37° C. after which the haemostatic activity is recorded as depicted in FIG. 1."}, "[3]": {"conditions": "human, in vivo", "experimental": "Ninety-four critically ill patients admitted to the intensive care unit (ICU) underwent haemofiltration with or without concomitant Flolan (prostacycline) treatment. None of the patients were suffering from Acute Traumatic Coagulopathy nor from sequelae to cardiac arrest. Flolan was administered in a low dose in the filters to prevent these from clotting and consequently there was only a minor spill over of Flolan to the systemic circulation. The patients were retrospectively reviewed.\nHowever, patients in the flolan group were more severely ill as evaluated by a lower platelet count at start of hemofiltration, a higher frequency of severe thrombocytopenia, a higher frequency of DIC diagnoses, a higher maximum SOFA score and a higher SOFA score at hemofiltration initiation as compared to the patients receiving non-flolan."}, "endothelium": {"tested_on": "endothelium", "assay": "Plasma biomarkers (ELISA) of endothelial, glycocalyx, necrosis and anticoagulation status in healthy volunteers after Flolan infusion", "format": "in vivo, human", "conditions": "8 healthy volunteers, 4 ng/kg/min i.v. for 2 h", "experimental": "Eight healthy volunteers were administered Flolan® (Prostacyclin) intravenously at a dose of 4 ng/kg/min for 2 h. Blood samples were analyzed for plasma biomarkers indicative of endothelial cell (thrombomodulin, PAI-1) and glycocalyx (syndecan-1) activation and/or damage, cellular necrosis (histone-complexed DNA fragments, HMGB1) and anticoagulation (protein C, antithrombin, TFPI) at the following time points: Before the infusion (0 h), immediately after ceasing the infusion (2 h) and then 4 h, 5 h, 6 h, 8 h and 24 h after starting the infusion. The concentration of the individual biomarkers in plasma was analyzed by commercially available ELISA kits according to the manufactures recommendations. Paired t-tests with p-values <0.05 were considered significant."}, "[4]": {"assay": "Blood pressure and heart rate in healthy volunteers during intravenous flolan infusion", "format": "in vivo, human", "conditions": "4 ng/kg/min i.v. for 2 h, any time point", "experimental": "as §1"}}, "data": [{"compound": "CC#CCC(C)[C@H](O)/C=C/[C@@H]1[C@H]2C/C(=C/CCCC(=O)O)C[C@H]2C[C@H]1O", "note": "(some centres unmarked) [Iloprost, iloprost]", "values": [{"measurement": "half time", "setting": "[1]", "result": "20 to 30", "unit": "min"}]}, {"compound": "CCCCC[C@H](O)CC[C@@H]1[C@H]2Cc3cccc(OCC(=O)O)c3C[C@H]2C[C@H]1O", "note": "[Treprostinil, treprostinil]", "values": [{"measurement": "half time", "setting": "[1]", "result": "less than 4 hours"}]}, {"compound": "CC#CCC(C)[C@H](O)/C=C/[C@@H]1[C@H]2c3cccc(CCCC(=O)O)c3O[C@H]2C[C@H]1O", "note": "(mixture of isomers) [Beraprost, beraprost]", "values": [{"measurement": "half time", "setting": "[1]", "result": "35 to 40", "unit": "min"}]}, {"compound": "CCCCC[C@H](O)/C=C/[C@@H]1[C@H]2C/C(=C/CCCC(=O)O)O[C@H]2C[C@H]1O", "note": "[Flolan, epoprostenol sodium]", "values": [{"measurement": "Multiplate values (ASPI, COL, ADP, TRAP), baseline vs. samples during infusion", "setting": "[2]", "result": "no significant difference"}, {"measurement": "TEG values (R, Angle, MA), baseline vs. samples during infusion", "setting": "whole blood", "result": "No significant difference"}, {"measurement": "half time", "setting": "[1]", "result": "0.5 to 3", "unit": "min"}, {"measurement": "Platelet count (difference before vs. after haemofiltration)", "setting": "[3]", "result": "+14"}, {"measurement": "haemostatic competence as evaluated by transfusion requirements", "setting": "[3]", "result": "does not negatively influence"}, {"measurement": "total transfusion requirements and specifically of FFP during hemofiltration", "setting": "[3]", "result": "increased"}, {"measurement": "cell necrosis biomarker HMGB1", "setting": "endothelium", "result": "did not influence"}, {"measurement": "cell necrosis biomarker histone-complexed DNA fragments", "setting": "endothelium", "result": "did not influence"}, {"measurement": "circulating level of PAI-1", "setting": "endothelium", "result": "declined"}, {"measurement": "circulating level of TFPI (affected or not)", "setting": "endothelium", "result": "did not"}, {"measurement": "circulating level of antithrombin", "setting": "endothelium", "result": "decreased"}, {"measurement": "glycocalyx shedding (syndecan-1)", "setting": "endothelium", "result": "did not induce or influence"}, {"measurement": "HMGB1 at 5 h", "setting": "endothelium; 5 h after starting infusion, p=0.056", "result": "tendency towards a reduction"}, {"measurement": "circulating level of thrombomodulin", "setting": "endothelium; effect continuing for several hours after ceasing infusion", "result": "marked decrease"}, {"measurement": "circulating level of Protein C", "setting": "endothelium; in the hours after ceasing infusion", "result": "decreased"}, {"measurement": "blood pressure, change from baseline", "setting": "[4]", "result": "did not change"}, {"measurement": "heart rate, change from baseline", "setting": "[4]", "result": "did not change"}]}]}
